From patent US20100145469A1, “BIOCERAMIC IMPLANTS HAVING BIOACTIVE SUBSTANCE” (priority 2007, published 2010) come the findings set out here.

“Also recorded” adds a separate entry of the source.

The test system of this test is angiogenesis. The test is described as follows: Peritoneal implantation of Y-pore bioceramic implants in mice for 15 days, wound tissue and angiogenesis patterns. To be noted: for tissue response in pores: mice.
The mark [1] stands for this setting: DCPD implant treated with VEGF at the blind end of the closed pore.

From the text: In order to produce model implants for the investigation of spatially localized release of both organic (VEGF), a Y shaped hemi-cylindrical pore channel was designed in the x-y plane of DCPD cuboids with dimensions 8 mm×8 mm×3 mm. The bioceramic endoprosthesis was made in two mirror image halves 50, 52 that keyed into one another to form a Y shaped pore 51a, 51b closed at one of the branched ends (see FIGS. 2A-2C). […] In the experiments, mouse VEGF solution was deposited at the end of the closed pore.
Wound tissue and angiogenesis patterns were examined for the implanted bioceramic endoprosthesis after peritoneal implantation of the bioceramic endoprosthesis in mice for 15 days.
For experimental analysis, VEGF-impregnated bioceramic materials were prepared by passive adsorption of 200 ng or 2 μg final amount of mouse VEGF (R&D, Cedarlane Laboratories Ltd., Canada) diluted in a 5 μl volume of Hank's balanced salt solution (HBSS). Adsorption of VEGF was performed on each half of the bioceramic endoprosthesis (see FIGS. 2A-2D) at the closed end (3) of the Y-shape pore. Specimens were air-dried under a sterile laminar flow hood. Prior to VEGF impregnation, the bioceramic materials were sterilized by soaking in 70% ethanol, followed by a HEPES-NaCl buffered solution rinse, HBSS (×3), and then air-dried. Control material specimens were also impregnated with HBSS without VEGF. Higher concentrations of VEGF (400 μg/ml) were also investigated.

Consider “vascular endothelial growth factor [VEGF]”, for which, under setting [1], the “microvessel formation (microscopic observation, FIG. 3A)” value is given as “microvessel formation in the tissue only in the closed pore ends”. For the same substance, under setting [1], the “tissue in-growth (photographs, FIG. 3A)” value is listed as “well formed vascular tissue extended from the main pore opening to closed pore end”. Further, the “tissue response in pores” value is “vascular tissue throughout the pore channels; also recorded: Vascularised tissue was found inside the main open and closed pore channels” (DCPD implant, 200 ng VEGF deposited in closed pore ends, 15 days); “vascular tissue throughout the pore channels” (DCPD implant, 2 μg VEGF deposited in pore ends, 15 days); “very little tissue ingrowth” (HA implants containing VEGF, 15 days). Further, where the note is “DCPD implant, 15 days”, the “angiogenic effect compared with untreated DCPD control (quantitative measurements)” value is on record as “significantly enhanced angiogenic effect”. In addition, the “vascularization pattern in pores” value (HA implants, 2 μg VEGF deposited in closed pore ends, 15 days implantation) is “mostly filled with clear connective tissue”. For the same substance, under “factor deposited at closed pore end of model implant, peritoneal implantation 15 days, factor-free controls 2 mm”, the “length of pore into which blood vessels extended” value stood at 7 mm.
